Assay results as given in PMC2807854, “Monoketone analogs of curcumin, a new class of Fanconi anemia pathway inhibitors” (Molecular Cancer, 2009).
Read-outs that look alike come from different tables or passages of the source. One block for each molecule: values may come before it. Residues, ends and D or L forms follow the SMILES beside them. *: point of attachment. Cbz = O=C(OCc1ccccc1)*

Key:
[1] = tested on: xFANCD2-Ub (FANCD2 monoubiquitylation); assay: Xenopus cell-free FA pathway assay: DNA substrate-induced xFANCD2 monoubiquitylation (immunoblot, densitometry); format: biochemical, Xenopus laevis; details: for activity against xFANCD2-Ub in Xenopus extracts: activated Xenopus extracts, serial dilutions up to 3000 μM; for IC50: plasmid-activated Xenopus extracts, Fig. 7B, read-out: xFANCD2-Ub inhibition IC50
Description: (§1) A series of monoketone analogs of curcumin [18] was evaluated in Xenopus egg extracts where DNA substrate-induced xFANCD2-Ub is used as a readout of FA pathway performance. Phosphorylation of MRE11 (MRE11-P), a member of the MRN DNA damage repair pathway was monitored to assess the cross-specificity of the compounds. For each compound, IC50 values were determined from serial dilution experiments and densitometry analysis of immunoblots.
(§2) IC50 values were determined using immunoblots of plasmid-activated extracts treated with a range of concentrations for each compound (0, 10, 25, 60, 150, 400, 1000, 3000 μM). A representative experiment is shown (out of 3 repeats). B) Structure of curcumin and monoketone analogs. […] Activated extracts were treated with 1 mM each compound and phosphorylation of RPA32 and H2AX monitored by immunoblot.
(§3) Preparation of Xenopus laevis low-speed extracts and the FA pathway assay were described previously.
(§4) Fitted curves were determined from experimental data using IgorPro. The concentration of compound that induces 50% inhibition of the measured endpoint (i.e. FANCD2 ubiquitylation, Mre11 phosphorylation and cell survival) was then plotted on the fitted curve.

proteasome [2] = assay: Proteasome assay in Xenopus extracts, both activities taken together; format: biochemical, Xenopus laevis; details: caspase-like and chymotrypsin-like activities
Source text: The proteasome is required for the monoubiquitylation of xFANCD2 in cells. As curcumin has proteasome inhibiton activities, we tested whether EF24 inhibits xFANCD2-Ub by this mechanism. Two proteasome activities (caspase-like and chymotrypsin-like) along with xFANCD2-Ub status were monitored in activated Xenopus extracts treated with various compounds (Fig. 2A).
Proteasome activities and xFANCD2-Ub were monitored using fluorogenic probes and immunoblotting, respectively. IC50 values were determined for each compound using a range of concentrations and represented in histogram graphs. For MG132, numbers above caspase-like and chymotrypsin-like histograms indicate the actual IC50 values. A representative experiment is shown (out of 3 repeats).
Fluorogenic peptides (Proteasome Substrate Pack #PW9905) specific for the chymotrypsin-like and caspase-like activities of the proteasome were incubated in Xenopus extracts treated with serial dilutions of various compounds. Fluorescence emitted by proteasome cleavage of the peptides was monitored using a fluorometer (FluoStar Galaxy, BMG Labtech) with 380 nm and 460 nm excitation and emission filters, respectively. Experiments were repeated at least twice.

334ATM WT cells = assay: Survival assay (MTS), ATM wild-type mouse kidney cells; format: cell-based; details: 72 hrs, read-out: cell survival IC50 WT
Source text: (§5) To test this possibility, we compared the effects of curcumin and EF24 in an ATM KO mouse kidney cell line (309ATM KO) and its isogenic, wild type counterpart (334ATM WT). As expected from ATM deficiency, 309ATM KO cells were more sensitive to ionizing irradiation than 334ATM WT (Additional File 1 - Fig. S3). We next treated these cell lines with various concentrations of EF24 and measured their survival after 72 hrs.
(§6) Figure 6 EF24 but not curcumin or DRB is more toxic to ATM-deficient mouse kidney cells than wild-type cells. A) 309ATM KO and 334ATM WT cells were treated with various concentrations of EF24. Cell viability was measured after 3 days by MTS assay. Each point represents the mean of 3 repeats. Error bars represent standard deviation. B) Similar experiment was performed using curcumin.
(§7) HSC72OT and HSC72OT+A cells were seeded at 5,000 per well in 96-well plates, and treated 24 hrs later with various concentrations of compounds or DMSO (1 μl in 100 μl medium). 309ATM KO and 334ATM WT cells were seeded at 7,000 per well and treated immediately. Cell survival was measured after 3 days using the CellTiter 96 AQueous One Solution Cell Proliferation Assay (Promega) following the recommendations from the manufacturer. All experiments were done in triplicate.
as §4

309ATM KO cells = assay: Survival assay (MTS), ATM KO mouse kidney cells; format: cell-based; details: for sensitivity of 309ATM KO cells compared to 334ATM WT cells: 72 hrs survival, KO vs WT; for IC50: 309ATM KO cells, 72 hrs, MTS, read-out: cell survival IC50 KO
Source text: as §5, §6, §7, §4

hFANCD2-Ub in HeLa cells = assay: hFANCD2 ubiquitylation assay in hydroxyurea-treated HeLa cells (immunoblot, densitometry); format: cell-based, human; details: Homo sapiens; HeLa cells co-treated with hydroxyurea; read-out: hFANCD2-Ub inhibition IC50
Description: We next determined whether EF24 could inhibit hFANCD2-Ub in human cells. Curcumin was tested in parallel to assess whether activity difference observed in extracts are mirrored in cells. HeLa cells were co-treated with increasing concentrations of compounds and hydroxyurea (HU), a standard method to stimulate hFANCD2-Ub (Fig. 4A, lanes 1-2, 7-8, [30]).
A) Hydroxyurea-induced FANCD2-Ub in HeLa cells is inhibited by EF24 at lower concentrations than curcumin. hFANCD2-Ub was monitored by immunoblot and densitometry analysis to determine IC50. B) Hydroxyurea-induced hFANCD2 foci formation is inhibited by EF24. hFANCD2 foci were detected by immunofluorescence and the percentage of cells with more than 5 foci was determined for each treatment. Histograms represent the average of 3 experiments. Error bars represent standard deviation.
hFANCD2 ubiquitylation assay and immunofluorescence assays in HeLa cells have been described elsewhere.
as §4

[3] = tested on: ubiquitin isopeptidase/deubiquitinase (DUB); set-up: method as in PMID 16982768; details: cited from earlier work
proteasome [4] = tested on: proteasome; set-up: method as in PMID 16982768; details: cited from earlier work
[5] = tested on: xMRE11-P (MRE11 phosphorylation); assay: MRE11 phosphorylation in activated Xenopus extracts (immunoblot); format: biochemical, Xenopus laevis
Description: as §1, §2, §3, §4

[6] = tested on: IKK-2 (IKKβ) vs IKK-1 (IKKα); details: cited from earlier work
[7] = tested on: IKK (IκB-α stabilization); assay: IκB-α accumulation in Xenopus extracts as readout of IKK inhibition (immunoblot); format: biochemical, Xenopus laevis; details: Xenopus extracts prepared without cycloheximide, Fig. 3A/3B
Description: We tested whether EF24 inhibits IKK activity in Xenopus extracts by monitoring the accumulation of the IKK target, IκB-α (Fig. 3A). Because IκB-α phosphorylation by IKK leads to its degradation by the ubiquitin-proteasome pathway, inhibition of IKK results in the accumulation of IκB-α. For this experiment, we used extracts prepared without cycloheximide to allow for de novo translation of IκB-α.
Extracts treated as indicated were analyzed by immunoblot using xFANCD2, IκB-α and tubulin-α antibodies. IκB-α protein level was used as readout for monitoring IKK inhibition. […] Experiment was performed as in (A). The structure of BMS-345541 is shown. The star denotes a non-specific band used as loading control.

Compound: O=C1/C(=C/c2ccccn2)CNC/C1=C\c1ccccn1 [EF31]
activity against xFANCD2-Ub in Xenopus extracts [1]: strong activity against xFANCD2-Ub | fold less active than curcumin for proteasome inhibition (proteasome [2]): 20 fold

Compound: CC(C)(C)OC(=O)N1C/C(=C\c2ccccc2F)C(=O)/C(=C/c2ccccc2F)C1 [0616-104]
activity against xFANCD2-Ub in Xenopus extracts [1]: non-detectable levels

Compound: O=C1/C(=C/c2ccccc2F)COC/C1=C\c1ccccc1F [AS153-2]
activity against xFANCD2-Ub in Xenopus extracts [1]: undetectable levels

Compound: O=C1/C(=C/c2ccccn2)COC/C1=C\c1ccccn1 [0822-3]
activity against xFANCD2-Ub in Xenopus extracts [1]: only weakly active

Compound: O=C1/C(=C/c2ccc(F)cc2)CNC/C1=C\c1ccc(F)cc1 [AS153-5]
activity against xFANCD2-Ub in Xenopus extracts [1]: much more potent than the corresponding thio-pyran analog

Compound: COc1cc(/C=C/C(=O)CC(=O)/C=C/c2ccc(O)c(OC)c2)ccc1O [curcumin]
activity against xFANCD2-Ub in Xenopus extracts [1]: only a weak activity on xFANCD2-Ub | IC50 [1]: > 2000 µM | proteasome inhibition (proteasome [2]): efficiently inhibited both proteasome activities | IC50 (334ATM WT cells; Mus musculus): 17 µM | sensitivity of 309ATM KO cells compared to 334ATM WT cells (309ATM KO cells): slightly more resistant | IC50 (309ATM KO cells; Mus musculus): 23 µM | IC50 (hFANCD2-Ub in HeLa cells): 15 µM

Compound: O=C1/C(=C/c2ccccn2)CSC/C1=C\c1ccccn1 [0821-120A]
activity against xFANCD2-Ub in Xenopus extracts [1]: drops the activity only slightly

Compound: O=C1/C(=C/c2ccc([N+](=O)[O-])cc2)CS(=O)(=O)C/C1=C\c1ccc([N+](=O)[O-])cc1 [4H-TTD, 4H-Thiopyran-4-one, tetrahydro-3,5-bis [(4-nitrophenyl)methylene]-,1,1-dioxide]
IC50 [1]: 250 µM | IC50 (334ATM WT cells; Mus musculus): 0.5 µM | ubiquitin isopeptidase/deubiquitinase (DUB) inhibition [3]: exhibited ubiquitin isopeptidase/deubiquitinase (DUB) inhibition activity | overall cell toxicity concentration relative to EF24 (309ATM KO cells; 309ATM KO and 334ATM WT survival assay): about 10 times | sensitivity of 309ATM KO cells compared to 334ATM WT cells (309ATM KO cells): 3 fold | IC50 (309ATM KO cells; Mus musculus): 0.18 µM | IC50 (hFANCD2-Ub in HeLa cells): 0.12 µM | proteasome activity (proteasome [4]): did not inhibit proteasome activity

Compound: OC[C@H]1O[C@@H](n2cnc3cc(Cl)c(Cl)cc32)[C@H](O)[C@@H]1O [DRB, reference compound]
activity against xFANCD2-Ub in Xenopus extracts [1]: no effect on the FA pathway in Xenopus extracts | IC50 (334ATM WT cells): 60 µM | IC50 (309ATM KO cells): 56 µM

Compound: CC(C)C[C@@H](C=O)NC(=O)[C@H](CC(C)C)NC(=O)[C@H](CC(C)C)NC(=O)OCc1ccccc1 [MG132, reference compound] (Cbz-Leu-Leu-Leu-aldehyde)
activity against xFANCD2-Ub in Xenopus extracts [1]: only a weak activity on xFANCD2-Ub | proteasome inhibition (proteasome [2]): efficiently inhibited both proteasome activities

EC50 ([1]; Xenopus extracts prepared without cycloheximide, Fig. 3A/3B, read-out: xFANCD2-Ub inhibition EC50): 970 µM | EC50 [7]: 280 µM
Compound: Cc1ccc2nc(NCCN)c3ncc(C)n3c2c1 [BMS-345541, reference compound]
effect on xMRE11 phosphorylation [5]: MRE11 phosphorylation was inhibited | fold more active on IKK-2 (IKKβ) than on IKK-1 (IKKα) [6]: 10 fold

Compound: NC1C/C(=C\c2ccccc2F)C(=O)/C(=C/c2ccccc2F)C1 (stereo not shown) [0810-117]
activity against xFANCD2-Ub in Xenopus extracts [1]: non-detectable levels | proteasome inhibition (proteasome [2]): weak inhibitory activities against both the proteasome and xFANCD2-Ub

Compound: CO[C@H]([C@H](O)CC(=O)[C@@H](C)[C@@H](O)CC[C@@H](C)[C@@H]1O[C@]2(CC[C@@H](C)[C@H](CC[C@H](C)C(C)=O)O2)CC[C@@H]1C)[C@H](OC(=O)C[C@@H](O)C1=C(C)C(=O)OC1=O)C(C)C [tautomycin, reference compound]
activity against xFANCD2-Ub in Xenopus extracts [1]: no detectable effect on xFANCD2-Ub | effect on xMRE11 phosphorylation [5]: accumulation of xMRE11-P

Compound: O=C1/C(=C/c2cccc(F)c2)CNC/C1=C\c1cccc(F)c1 [AS153-4]
activity against xFANCD2-Ub in Xenopus extracts [1]: strong activity against xFANCD2-Ub | fold less active than curcumin for proteasome inhibition (proteasome [2]): 20 fold
